# Results taken from patent publication US20190015518A1, “DRUG DELIVERY COMPOSITIONS AND METHODS” (priority 2016, published 2019).
# “And” between values parts separate entries of the source, which are not always exact repeats. Equal values may be shown once.
# Tests used:
# [1] = HPLC of small molecular platinum species after storage; format: physicochemical; details: solution stored at 4° C. for 4 days
# Experimental: Small molecular platinum species including cisplatin, Pt-monoaqua, and Pt-diaqua were quantified by HPLC. The mobile phase was sodium phosphate solution (10-mM, pH 3.0) at a flow rate of 0.25 mL/min on an Alltech® 250 mm×4.6 mm M/M RP8/cation column thermostated at 25° C. […] The filtrate was immediately injected into the HPLC.
# [2] = system: white blood cell DNA; assay: Pt-DNA adduct quantitation in white blood cell DNA; format: in vivo, rat; details: for Pt-DNA adduct Tmax / Pt-DNA adduct AUC: cisplatin i.v. 10 mg/kg, HA-Lys-Pt s.c. 10 mg/kg cisplatin basis; for Pt-DNA adduct AUC: 10 mg/kg
# Experimental: (§1) Whole blood was centrifuged (1500×g, 5 min., 4° C., no brake). Top layer (plasma) and middle layer (white blood cells) were transferred to new tubes. Plasma was frozen (−20° C.) until analysis. […] The white blood cell pellet was washed twice with cold PBS and re-suspended in 9 mL of white blood cell buffer (10-mM Tris, pH 7.4, 2.3% NaCl, 2-mM EDTA), and 900 μL of 1.1-M NH4HCO3, 900 μL of 10% SDS, and 75 μL of 2% Proteinase K were added and incubated at 42° C. overnight. Then, 3.3 mL of 5-M NaCl was added, samples shaken vigorously, and centrifuged twice (3200×g, 5 min, 4° C.), each time discarding the pellet. DNA was pelleted with 20 mL of ice-cold 100% ethanol and centrifuged (3200×g, 5 min, 4° C.); the DNA pellet was washed twice with 75% ethanol, re-suspended in water, and quantitated. DNA was digested in 1% HNO3 (800 μL total volume) overnight at 70° C. DNA samples were diluted 1:10 in 1% HNO3 and plasma samples were diluted 1:10,000 in 1% HNO3. Diluted samples were analyzed for Pt content using ICP-MS with a calibration curve from 1-1000 ppt.
# [3] = Plasma Pt quantitation; details: cisplatin i.v. 10 mg/kg; HA-Lys-Pt s.c. 10 mg/kg cisplatin basis
# Experimental: as §1
# [4] = Toxicity of HA-Lys-Pt in healthy Balb/c mice; format: in vivo, mouse
# Experimental: The toxicity of HA-Lys-Pt was evaluated in healthy Balb/c mice. […] Another group of Balb/c mice was injected subcutaneously with 8.86 (N=2), 13.3 (N=2), 17.7 (N=2), 20 (N=2), 30 (N=2), and 40 mg/kg (N=1) of the 33HA-Lys-Pt. Their body weights and symptoms of toxicities were monitored twice per week for up to 2 months.
# [5] = system: MDA-1986 head and neck tumors; assay: Anticancer efficacy, orthotopic xenograft model of human HNSCC; format: in vivo, mouse; design: key to tumor response, Modified RECIST: PR=Partial Response (>30% reduction); PD=Progressive Disease (>30% tumor growth); SD=Stable Disease (neither PR nor PD criteria met)
# Experimental: The MDA-1986 cells were prepared in PBS at a concentration of 2×10^7 cells/mL. Female NU/NU mice were anesthetized under 2% isoflurane in O2, and 50 μL of cell solution was injected into the oral sub-mucosa of the mice using a 27-ga needle. All procedures in the animal study were approved by the Institutional Animal Care and Use Committee of the University of Kansas. Tumor growth was monitored twice weekly by measurement with a digital caliper, and the tumor volume was calculated as 0.52×(width)^2×(length). […] The drugs were given weekly for 3 consecutive weeks.
# [6] = Transmission electron microscopy, particle diameter; format: physicochemical; details: TEM
# Description: FIGS. 4A and 4B show the transmission electron microscopy images of HA-Lys-Pt (75 kD HA) before and after salt treatment for 2 weeks. The average diameters of HA-Lys-Pt particles ranged from 25 to 50 nm. […] Intense darkness results from the high electron density of Pt rich area. […] Reduced clustering of the salt treated nanoparticles may be due to reduced hydrophobicity due to release of Pt and availability of charged chelator groups.
# [7] = system: head and neck squamous cell carcinoma cells, MDA-1986; assay: Cytotoxicity of HA-GluH-Pt (Resazurin blue); format: cell-based, human; details: 72 hours
# Experimental: Cell growth inhibition was determined in 96-well plates using head and neck squamous cell carcinoma cells, MDA-1986. […] Plates were seeded with 3,000 cells/well in 90 uL of media (6 replicates/sample). Ten microliters of HA-GluH-Pt conjugate solutions were applied after 24 hours. Resazurin blue in 10 uL of PBS was applied to each well (final concentration 5 uM) after another 72 hours.
# [8] = system: MDA-1986 cells that overexpress CD44; assay: CD44 specificity and cellular uptake of HA-GluH-Pt; format: cell-based, human; details: 30-μg/mL, 6 h
# Experimental: CD44 specificity and cellular internalization mechanism of HA-GluH-Pt was investigated using MDA-1986 cells that overexpress CD44. Chlorpromazine was used as an endocytosis inhibitor. Cells were pretreated with 25-μM chlorpromazine or 10-μg/mL anti-CD44 1 h before the addition of 30-μg/mL HA-GluH-Pt (on platinum basis) and subsequent incubation for 6 h. Cells were trypsinized, lysed by sonication and diluted 20 fold prior to ICP-MS analysis.
# [9] = Toxicity of HA-GluH-Pt in mice; format: in vivo, mouse; details: single s.c. 20, 40, 67 and 100 mg/kg, 2 months
# Experimental: The toxicity of HA-GluH-Pt was evaluated in blab/C mice. Four blab/C mice were injected subcutaneously with 20, 40, 67 and 100 mg/kg HA-GluH-Pt. The body weights of the animals were checked weekly for 2 months.
# [10] = system: MDA-1986 (human head and neck squamous cell carcinoma) cells; assay: Anti-proliferative activity (Resazurin Blue, 72 hours); format: cell-based
# Experimental: (§2) MDA-1986 (human head and neck squamous cell carcinoma), 4T1.2-neu (murine breast cancer cells), and A2058 (human melanoma) cells were maintained in Dulbecco's Modified Eagle Medium (DMEM, Corning, Manassas, Va.) with 4.5 g/L glucose, 4.5 g/L L-glutamine, and 10% fetal bovine serum in a humidified incubator at 37° C. and 5% CO2. Cells were seeded into 96-well plates (3,000 cells/well in 90 μL media) and allowed to attach overnight. […] Resazurin Blue (Acros Organics, Geel, Belgium) in PBS was added to each well (5-μM final concentration; 10-μL addition) and incubated at 37° C. for 4 hours. Fluorescence (λex 550 nm, λem 605 nm) was quantified with a SpectraMax Gemini XS plate-reader (Molecular Devices, Sunnyvale, Calif.). The relative growth of cells incubated with each compound concentration was normalized to vehicle-treated controls (100% proliferation). Data from at least three separate experiments performed in duplicate was analyzed using non-linear regression (GraphPad Prism 5.0) to generate IC50 values.
# [11] = Viscosity reduction by excipients (rheometer); format: physicochemical; details: 37° C.
# Experimental: The viscosity of 29 kDa HA (60 mg/mL), 33HA-Lys (33 kDa HA with linker, 8 mg/mL on HA basis), and 33HA-Lys-Pt (41.7 mg/mL on HA basis) with increasing concentration of mannitol (0, 0.1, 0.5 and 1 M) were measured using a rheometer at 37° C.
# The solutions were incubated in the dark for 20 hours using a CLAY ADAMS® Brand Nutator. After 20 hours, the pH of the solutions were adjusted to pH 6.0 using 1N NaOH. A Brookfield DVIII Ultra Programmable Rheometer was used to measure the viscosity of three 500-μL samples of each solution. Measurements were taken for each at three different RPMs, where the torque ranged from 10-100%. Values for viscosity were not recorded until at least 30 seconds after the motor was started, after the torque readings were stabilized.
# The solutions were incubated in the dark for 20 hours using a CLAY ADAMS® Brand Nutator. After 20 hours, the pH of the solutions were adjusted to pH 5.0 or 6.0 using 1N NaOH. A Brookfield DVIII Ultra Programmable Rheometer was used to measure the viscosity of three 500-μL samples of each solution. Measurements were taken for each at three different RPMs, where the torque ranged from 10-100%. Values for viscosity were not recorded until at least 30 seconds after the motor was started, after the torque readings were stabilized.
# [12] = Viscosity reduction by excipients (rheometer); format: physicochemical; details: sucrose 0.1, 0.5 and 1 M, 37° C.
# [13] = system: A2058 (human melanoma) cells; assay: Anti-proliferative activity (Resazurin Blue, 72 hours); format: cell-based; details: mean ± S.E.M., cisplatin basis
# Experimental: as §2
# [14] = system: 4T1.2-neu (murine breast cancer cells); assay: as above; format: cell-based; details: mean ± S.E.M., cisplatin basis
# Experimental: as §2
# [15] = system: spontaneous canine cancers; details: dogs; cited from earlier work
# [16] = human, in vivo; cited from earlier work
compound,measurement,setting,value
HA-cis-[Pt(NH3)2(N^α-Acetyl-L-Lysine)] [HA-Lys-Pt],Pt-monoaqua and Pt-diaqua detection,[1],Neither Pt-monoaqua nor Pt-diaqua was detected
same,Pt-DNA adduct Tmax,[2],48 h
same,Pt-DNA adduct AUC,[2],5247 pg Pt×h/μg DNA
same,plasma Pt Cmax,[3],4.1±2.4 μg Pt/mL plasma
same,plasma Pt Tmax,[3],24 h
same,body weight recovery,"[4]; 20 or 30 mg/kg (on cisplatin basis), weight loss began one-week post treatment",returned to pre-dose weight within another two weeks
same,body weight recovery,"[4]; highest dose (40 mg/kg), compared with 20 or 30 mg/kg",one additional week
same,"acute toxic reactions including lethargy, paralysis, and respiratory depression","[4]; single s.c. injection, any dose level",not observed
same,weight loss,[5]; single dose of 20 mg/kg,less than 5%
same,weight loss,"[5]; three weekly doses of 20 mg/kg, after the last injection",more than 20%
same,diameters of nanoparticles,[6]; after salt treatment for 2 weeks,25-50 nm
same,diameters of nanoparticles,[6]; freshly made,25-50 nm
HA-cis-[Pt(NH3)2(Nα-AcetylGluH)] [HA-GluH-Pt],IC50,[7],623 µM
same,cellular uptake in anti-CD44 antibody and chlorpromazine treated cells,[8],did not differ significantly from the non-treated control
same,weight loss,[9],Less than 5%
HA6.4-cis-[Pt(NH3)2(Nα-Acetyl-L-lysine)] [HA6.4-lys-Pt],cell growth inhibition,[10]; highest dose tested (300 μM),< 50%
same,IC50,"[10]; mean ± S.E.M., cisplatin basis",> 500 µM
HA-cis-[Pt(NH3)2(N^α-Acetyl-L-Lysine)] [33HA-Lys-Pt],IC50,"[10]; mean ± S.E.M., cisplatin basis, listed as HA-Lys-Pt 33 kDa",20.7 ± 2.9 µM
same,IC50,"[10]; text b180, listed as HA-Lys-Pt 33 kDa",~40 µM
same,"tumor response, Modified RECIST",[5]; animal #1,PR (PR=Partial Response (>30% reduction))
same,"tumor response, Modified RECIST",[5]; animal #2,PR (PR=Partial Response (>30% reduction))
same,"tumor response, Modified RECIST",[5]; animal #3,SD
same,"tumor response, Modified RECIST",[5]; animal #4,PR (PR=Partial Response (>30% reduction))
same,"tumor response, Modified RECIST",[5]; animal #5,PR (PR=Partial Response (>30% reduction))
same,"tumor response, Modified RECIST",[5]; animal #6,SD
same,"tumor response, Modified RECIST",[5]; animal #7,PR (PR=Partial Response (>30% reduction))
same,"tumor response, Modified RECIST",[5]; animal #8,PR (PR=Partial Response (>30% reduction))
same,rate of partial response (PR),[5]; three weekly injections,75%
same,effect on viscosity,"[11]; mannitol 0.1, 0.5 and 1 M",reduced the viscosity
same,effect on viscosity,"[11]; trehalose 0.1, 0.5 and 1 M",reduced the viscosity
same,effect on viscosity,[12],reduced the viscosity
"N.N.[Cl][Pt][Cl] [Cisplatin, cisplatin, reference compound]",IC50,"[10]; mean ± S.E.M., cisplatin basis",8.2 ± 0.6 µM
same,IC50,"[10]; mean ± S.E.M., cisplatin basis, listed as cisplatin",~8 µM
same,IC50,[13],6.8 ± 2.7 µM
same,IC50,[13]; listed as cisplatin,~8 µM
same,IC50,[14],9.4 ± 2.5 µM
same,IC50,[14]; listed as cisplatin,~8 µM
same,Pt-DNA adduct Tmax,[2],1 h
same,Pt-DNA adduct AUC,[2],1466 pg Pt×h/μg DNA and 1255 pg Pt×h/μg DNA
same,levels of adduct formation over the time course,"[2]; i.v. 10 mg/kg, 15 minutes to 96 hours",11-16 pg Pt/μg DNA
same,"tumor response, Modified RECIST",[5]; animal #1,PR (PR=Partial Response (>30% reduction))
same,"tumor response, Modified RECIST",[5]; animal #2,PD (PD=Progressive Disease (>30% tumor growth))
same,"tumor response, Modified RECIST",[5]; animal #3,SD
same,"tumor response, Modified RECIST",[5]; animal #4,PR (PR=Partial Response (>30% reduction))
same,"tumor response, Modified RECIST",[5]; animal #5,PD (PD=Progressive Disease (>30% tumor growth))
same,"tumor response, Modified RECIST",[5]; animal #6,PR (PR=Partial Response (>30% reduction))
same,"tumor response, Modified RECIST",[5]; animal #7,PD (PD=Progressive Disease (>30% tumor growth))
same,"tumor response, Modified RECIST",[5]; animal #8,PD (PD=Progressive Disease (>30% tumor growth))
same,rate of partial response (PR),[5]; three weekly injections,37.5%
same,rate of progressive disease (PD),[5]; three weekly injections,50%
same,cure in heterogeneous oral squamous cell carcinomas,[15],7%
N.N.O=C([O-])C1(C(=O)[O-])CCC1.[Pt+2] [carboplatin],patients in whom thrombocytopenia is dose limiting,[16],25%
